According to patent EP0287014A2, “Cholesteryl-phosphoryl choline for the reduction of the cholesterol level” (F. HOFFMANN-LA ROCHE AG, priority 1987, dated 1988):
Read-outs that look alike come from different tables or passages of the source.

Tests used:
Totenkopfäffchen [1] = experiment: Inhibition of cholesterol absorption after oral [14C]-cholesterol test meal, faecal radioactivity over 2.5 days; assay type: in vivo; conditions: in percent of untreated control animals
Procedure: Einer Gruppe von 12 Totenkopfäffchen wurde ein Gemisch enthaltend Triolein, Stärke, Milchpulver, 1 mg [¹⁴C]-Cholesterin und 0.05 mg [³H]-Polyäthylenglycol und unmittelbar darauf eine Dispersion von CPC in 5% Gummi arabicum oral verabreicht. Hierauf wurde der Kot während 2,5 Tagen gesammelt. Die ausgeschiedene [¹⁴C]-Radioaktivität des Cholesterins wurde unter Berücksichtigung der [³H]-Radioaktivität des internen Standards Polyäthylenglycol ermittelt. Es wurde die Cholesterinabsorption (Differenz zwischen der verabreichten und der ausgeschiedenen [¹⁴C]-Radioaktivität des Cholesterins) berechnet und in der nachfolgenden Tabelle in Prozenten von unbehandelten Kontrolltieren angegeben.

Totenkopfäffchen [2] = experiment: Plasma cholesterol level during 14 days of feeding with coconut-oil diet; assay type: in vivo; conditions: for Senkung des Cholesterinspiegels in Prozenten der Kontrolltieren: versus placebo
Procedure: Totenkopfäffchen wurde pro Tier und Tag 239 mg Lactose als Placebo oder 239 mg CPC zusammen mit Kokonussöl enthaltendem Futter während 14 Tagen verabreicht. Jede 3 oder 4 Tage wurde den Tieren venöses Blut entnommen und der Cholesterinspiegel im Blutplasma ermittelt. In der nachstehenden Tabelle wird der Cholesterinspiegel in Prozenten der Vorperiode sowie die Senkung des Cholesterinspiegels in Prozenten der Kontrolltieren angegeben.

Acute toxicity (LD50) = conditions: mouse, in vivo, Maus, read-out: LD₅₀
Procedure: Was die Toxizität anbelangt, beträgt die LD₅₀ von CPC 125 mg/kg i.v. und 4000 mg/kg p.o. an der Maus.

What does the source list for `CC(C)CCC[C@@H](C)[C@H]1CC[C@H]2[C@@H]3CC=C4C[C@@H](OP(=O)([O-])OCC[N+](C)(C)C)CC[C@]4(C)[C@H]3CC[C@]12C` [CPC, Cholesteryl-phosphorylcholin]?
Cholesterinabsorption (%) (Totenkopfäffchen [1]; Dosis 30 µMol/kg oral): 90 ± 17%; Cholesterinabsorption (%) (Totenkopfäffchen [1]; Dosis 100 µMol/kg oral): 60 ± 10%; Cholesterinabsorption (%) (Totenkopfäffchen [1]; Dosis 300 µMol/kg oral): 12 ± 6%; Cholesterinspiegel im Blutplasma in Prozenten der Vorperiode (Totenkopfäffchen [2]; Tag 1, vor der Behandlung, 239 mg CPC per animal and day): 100±8%; Senkung des Cholesterinspiegels in Prozenten der Kontrolltieren (Totenkopfäffchen [2]; Tag 1, vor der Behandlung): 0%; Cholesterinspiegel im Blutplasma in Prozenten der Vorperiode (Totenkopfäffchen [2]; Tag 4, während der Behandlung, 239 mg CPC per animal and day): 88±6%; Senkung des Cholesterinspiegels in Prozenten der Kontrolltieren (Totenkopfäffchen [2]; Tag 4, während der Behandlung): 9%; Cholesterinspiegel im Blutplasma in Prozenten der Vorperiode (Totenkopfäffchen [2]; Tag 7, während der Behandlung, 239 mg CPC per animal and day): 84±4%; Senkung des Cholesterinspiegels in Prozenten der Kontrolltieren (Totenkopfäffchen [2]; Tag 7, während der Behandlung): 20%; Cholesterinspiegel im Blutplasma in Prozenten der Vorperiode (Totenkopfäffchen [2]; Tag 11, während der Behandlung, 239 mg CPC per animal and day): 93±13%; Senkung des Cholesterinspiegels in Prozenten der Kontrolltieren (Totenkopfäffchen [2]; Tag 11, während der Behandlung): 13%; Cholesterinspiegel im Blutplasma in Prozenten der Vorperiode (Totenkopfäffchen [2]; Tag 14, während der Behandlung, 239 mg CPC per animal and day): 86±11%; Senkung des Cholesterinspiegels in Prozenten der Kontrolltieren (Totenkopfäffchen [2]; Tag 14, während der Behandlung): 18%; Cholesterinspiegel im Blutplasma in Prozenten der Vorperiode (Totenkopfäffchen [2]; Tag 18, nach der Behandlung, 239 mg CPC per animal and day for 14 days): 94±13%; Senkung des Cholesterinspiegels in Prozenten der Kontrolltieren (Totenkopfäffchen [2]; Tag 18, nach der Behandlung): 9%; Cholesterinspiegel im Blutplasma in Prozenten der Vorperiode (Totenkopfäffchen [2]; Tag 21, nach der Behandlung, 239 mg CPC per animal and day for 14 days): 97±11%; Senkung des Cholesterinspiegels in Prozenten der Kontrolltieren (Totenkopfäffchen [2]; Tag 21, nach der Behandlung): 10%; reversible Senkung des Plasmacholesterols (Totenkopfäffchen [2]; summary, versus placebo values and values of the pre-period): 10 bis 20%; LD50 (Acute toxicity (LD50); iv): 125 mg/kg; LD50 (Acute toxicity (LD50); po): 4000 mg/kg
